Measurements from US7071165B2, “LHRH antagonist peptides” (Indiana University Research and Technology Corporation, priority 1995, dated 2006).

Experiments:
[1] = cited from earlier work
ovulation in female rats [2] = test: Anti-ovulatory activity (AOA) in vivo assay in rats; conditions: dose 0.5 μg per rat
rat mast cells = test: Histamine release assay, rat mast cells
Method: The term “histamine-releasing activity”, as used herein, refers to the tendency of a compound to release histamine when administered to a subject. The histamine-releasing activity of a compound can be measured with an in vitro assay (described in more detail, infra). […] Histamine-releasing activity was assayed by the method described in U.S. Pat. No. 4,851,385 to Roeske. Briefly, a suspension of rat mast cells was added to increasing concentrations of an LHRH antagonist peptide and incubated for 15 minutes at 37° C. The buffer contained 25 mM PIPES, pH 7.4, NaCl (119 mM), KCl (5 mM), NaOH (40 mM) glucose (5.6 mM), CaCl2 (1 mM) and 0.1% bovine serum albumin.

ovulation in female rats [3] = test: Anti-ovulatory activity (AOA) in vivo assay in rats; parameters: species or system rat
Outline: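 Female rats dosed on proestrus day with test peptide dissolved in 0.1% DMSO. Read-out is the number of rats that ovulate; antagonist activity is defined as blocking ovulation in at least 50% of treated rats at a dose of 5 μg per rat.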

plasma testosterone [4] = test: Suppression of plasma testosterone, continuous subcutaneous infusion via osmotic pump (FIG. 2, FIG. 3); assay type: in vivo, rat
Method: FIG. 2 is a graph depicting plasma testosterone levels (in ng/ml) in adult male rats subcutaneously administered the LHRH antagonist #3827 via an osmotic pump. Doses were either 300 μg/kg/day for two weeks, followed by 15 μg/kg/day for an additional two weeks or 1000 μg/kg/day for two weeks, followed by 5, 15 or 50 μg/kg/day for an additional two weeks.
FIG. 3 is a graph depicting the plasma testosterone levels (in ng/ml) in adult male rats subcutaneously administered the LHRH antagonist #3827 via an osmotic pump. Doses were either 30 μg/kg/day for two weeks, followed by 5 μg/kg/day for an additional two weeks, 100 μg/kg/day for two weeks, followed by 5 μg/kg/day for an additional two weeks. or 300 μg/kg/day for two weeks, followed by 0 or 5 μg/kg/day for an additional two weeks.
In another experiment, continuous subcutaneous infusion of the LHRH antagonist # 3827 was achieved through use of an osmotic pump. Doses of 300 or 1000 μg/kg/day (“High Dose”) were administered subcutaneously for two weeks via Alzet osmotic minipumps in each of five male Sprague-Dawley rats. The animals that received 1000 μg/kg/day were then maintained for an additional two weeks with 5, 15 or 50 μg/kg/day (“Low Dose”) before the pumps were removed completely. The results are shown graphically in FIG. 2.

plasma testosterone [5] = test: Suppression of plasma testosterone, single subcutaneous injection; assay type: in vivo, rat; conditions: adult male rats
Method: The ability of an LHRH antagonist of the invention to suppress plasma testosterone levels was examined in adult male rats. In one experiment, a single injection of LHRH antagonist was administered subcutaneously at doses of 300 or 1000 μg/kg. […] Testosterone levels returned to normal by 24 hours after the 300 μg/kg dose, but not until 72 hours after the 1000 μg/kg dose.

plasma testosterone [6] = test: Suppression of plasma testosterone, eight doses every three hours (FIG. 1); assay type: in vivo, rat; conditions: adult male rats
Method: FIG. 1 is a graph depicting plasma testosterone levels (in ng/ml) in adult male rats administered eight subcutaneous injections of the LHRH antagonist #3827, one injection every three hours, at doses of 1, 10 or 100 μg/kg.
In another experiment, the LHRH antagonist #3827 was administered in eight […] doses of 1, 10 or 100 μg/kg, each every three hours, corresponding respectively to 8, 80 or 800 μg/kg/day. The results are shown graphically in FIG. 1.

[7] = rat mast cells, 15 minutes at 37° C.
[8] = follow up study, FIG. 3, osmotic pump s.c.

In the case of `c1ccc2ccccc2c1` [naphthalene], the “measured log P (octanol/water)” value [1] is listed as 3.45.
For `Oc1ccc2ccccc2c1` [β-naphthol], the “measured log P (octanol/water)” value [1] is given as 2.84.
In the case of “Ac-D-Nal^1, 4-Cl-D-Phe^2, D-Pal^3, D-Arg^6, Orn(COCH2S^+Me2)^8, D-Ala^10, LHRH.2TFA [Compound 3985]”, the “AO activity (AOA): rats which ovulate / rats treated” value (ovulation in female rats [2]) is reported as 8/8@0.5, the “Histamine release ED50” value (rat mast cells; footnote a: run with Nal arg reference 0.11) is reported as 4.4 µg/mL and the “Histamine release ED50” value (rat mast cells; footnote b: run with Nal arg reference 0.14) is reported as 3.86 µg/mL. The “AO activity (AOA): rats which ovulate / rats treated” value (ovulation in female rats [3]; dose 1 μg per rat) was 0/8@1.00.
In the case of “Ac-D-Nal^1, 4-Cl-D-Phe^2, D-Pal^3, D-Lys(Glc)^6-Lys(iPr)^8, D-Ala^10-LHRH.TFA [Compound 3423A]”, the “AO activity (AOA): rats which ovulate / rats treated” value (ovulation in female rats [2]) is reported as 7/10@0.5 μg, the “Histamine release ED50” value (rat mast cells; [7]) is reported as 52 µg/mL and the “AO activity (AOA): rats which ovulate / rats treated” value (ovulation in female rats [3]; dose 1 μg per rat) is reported as 2/10@1 μg. The “AO activity (AOA): rats which ovulate / rats treated” value (ovulation in female rats [3]; dose 2 μg per rat) was 0/10@2 μg.
In the case of “Ac-D-Nal^1, 4-Cl-D-Phe^2, D-Pal^3, D-Met(S^+CH3)^6, D-Ala^10-LHRH.2TFA [Compound 3967]”, the “AO activity (AOA): rats which ovulate / rats treated” value (ovulation in female rats [2]) is reported as 1/8@0.5, the “Histamine release ED50” value (rat mast cells; footnote e: run with Nal arg reference 0.1) is reported as 0.38 µg/mL and the “Histamine release ED50” value (rat mast cells; footnote f: run with Nal arg reference 0.02) is reported as 0.15 µg/mL. For the same compound, the “AO activity (AOA): rats which ovulate / rats treated” value (ovulation in female rats [3]; dose 0.25 μg per rat) was 7/8@0.25.
For “Ac-D-Nal^1, 4-Cl-D-Phe^2, D-Pal^3, D-Pal(Bzl)^6, Lys(iPr)^8, D-Ala^10-LHRH.TFA [Compound 3429]”, the “AO activity (AOA): rats which ovulate / rats treated” value (ovulation in female rats [2]) was 4/8@0.5 μg, the “Histamine release ED50” value (rat mast cells; [7]) was 6.0 µg/mL and the “AO activity (AOA): rats which ovulate / rats treated” value (ovulation in female rats [3]; dose 1 μg per rat) was 0/8@1 μg.
For “Ac-D-Nal^1, 4-Cl-D-Phe^2, D-Pal^3, N-Me-Tyr^5, D-Asn^6, Lys(iPr)^8, D-Ala^10-LHRH.TFA [Compound 3827]”, the “castration during Low Dose maintenance” value (plasma testosterone [4]; after High Dose two weeks, Low Dose pumps 5, 15 or 50 μg/kg/day, as low as 5 μg/kg/day) was “remained fully castrated”, the “recovery in plasma testosterone following completion of treatment” value (plasma testosterone [4]; by maintenance dose) was “dose dependent recovery” and the “dose achieving complete suppression of testosterone to castrate levels (as low as)” value (plasma testosterone [4]; [8]) was no more than 30 µg/kg/day. For the same compound, the “dose maintaining castrate levels (as low as)” value (plasma testosterone [4]; [8]) was no more than 5 µg/kg/day, the “time to castrate levels of testosterone” value (plasma testosterone [4]; male Sprague-Dawley rats, osmotic pump s.c., initial dose 300 or 1000 μg/kg/day) was no more than 7 days and the “castration response during chronic treatment” value (plasma testosterone [4]; osmotic pump s.c.) was “no apparent “castration response””. For the same compound, the “recovery of testosterone levels following pump removal” value (plasma testosterone [4]; rat, in vivo) was “complete within two weeks”, the “time until testosterone levels returned to normal” value (plasma testosterone [5]; single s.c. 300 μg/kg) was no more than 24 h and the “time until testosterone levels returned to normal” value (plasma testosterone [5]; single s.c. 1000 μg/kg) was 72 h. For the same compound, the plasma testosterone (plasma testosterone [5]; single s.c. injection 300 or 1000 μg/kg, by 6 hours post-administration) was “nearly undetectable levels”, the “AO activity (AOA): rats which ovulate / rats treated” value (ovulation in female rats [3]; dose 1 μg per rat) was 4/8@1.0 and the “AO activity (AOA), in words” value (ovulation in female rats [3]; rat, in vivo) was “moderate AO activity”. The plasma testosterone (plasma testosterone [6]; eight doses of 1 μg/kg, every three hours (8 μg/kg/day)) was “significant decrease” and the plasma testosterone (plasma testosterone [6]; eight doses of 10 μg/kg, every three hours (80 μg/kg/day)) was “Castrate levels”.
